In patent US8802866B2, “Pyridinylimidazolone derivatives for the inhibition of PI3 kinases” (Merck Patent GmbH, priority 2009, dated 2014):

How the values were obtained:
PI3Kalpha = PI3Kalpha (Homo sapiens, UniProt P42336); assay: Biochemical PI3Kalpha assay (neomycin SPA, lipid phosphorylation); conditions: human recombinant GST-PI3K
Outline: (§1)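 Recombinant PI3K incubated with lipid substrate and radioactive ATP for 120 min at room temperature with gentle stirring, then stopped with neomycin-coated PVT-SPA beads, ATP 60 mM and EDTA 6.2 mM in PBS. After 60 min bead binding and centrifugation, radioactive Ptdlns(3)P counted by scintillation.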

PI3Kbeta = PI3Kbeta (Homo sapiens, UniProt P42338); assay: Biochemical PI3Kbeta assay (neomycin SPA, lipid phosphorylation); conditions: human recombinant GST-PI3K
Sequence of PI3Kbeta (P42338 whole entry): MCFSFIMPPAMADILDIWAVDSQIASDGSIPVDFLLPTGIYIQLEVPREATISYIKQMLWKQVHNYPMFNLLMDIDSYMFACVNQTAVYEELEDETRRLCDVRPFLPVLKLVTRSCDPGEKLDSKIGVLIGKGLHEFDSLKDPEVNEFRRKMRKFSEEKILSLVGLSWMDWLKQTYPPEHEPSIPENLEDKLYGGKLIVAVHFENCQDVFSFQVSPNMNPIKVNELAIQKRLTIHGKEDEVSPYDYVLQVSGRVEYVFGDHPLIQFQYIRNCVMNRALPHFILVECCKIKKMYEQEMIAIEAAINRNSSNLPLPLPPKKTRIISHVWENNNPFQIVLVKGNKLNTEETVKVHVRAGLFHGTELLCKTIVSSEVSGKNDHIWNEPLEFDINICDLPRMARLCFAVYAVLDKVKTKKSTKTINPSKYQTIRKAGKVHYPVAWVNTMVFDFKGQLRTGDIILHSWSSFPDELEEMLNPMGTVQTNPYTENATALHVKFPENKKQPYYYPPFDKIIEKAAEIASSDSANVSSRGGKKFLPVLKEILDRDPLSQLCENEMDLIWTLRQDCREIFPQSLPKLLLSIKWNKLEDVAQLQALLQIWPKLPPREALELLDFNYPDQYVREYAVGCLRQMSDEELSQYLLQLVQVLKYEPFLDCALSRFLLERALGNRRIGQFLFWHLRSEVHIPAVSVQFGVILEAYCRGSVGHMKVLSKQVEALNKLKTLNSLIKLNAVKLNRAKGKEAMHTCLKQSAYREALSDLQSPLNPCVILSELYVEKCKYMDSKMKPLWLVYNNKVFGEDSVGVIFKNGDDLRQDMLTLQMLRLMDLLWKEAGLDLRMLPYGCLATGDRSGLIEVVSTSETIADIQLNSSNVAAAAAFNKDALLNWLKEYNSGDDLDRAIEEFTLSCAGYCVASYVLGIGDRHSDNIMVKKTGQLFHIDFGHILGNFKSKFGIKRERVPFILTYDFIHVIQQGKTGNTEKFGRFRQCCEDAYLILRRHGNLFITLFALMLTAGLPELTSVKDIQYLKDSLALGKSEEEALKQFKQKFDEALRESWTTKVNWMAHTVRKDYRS
Sequence of PI3Kbeta (P27986 whole entry partner): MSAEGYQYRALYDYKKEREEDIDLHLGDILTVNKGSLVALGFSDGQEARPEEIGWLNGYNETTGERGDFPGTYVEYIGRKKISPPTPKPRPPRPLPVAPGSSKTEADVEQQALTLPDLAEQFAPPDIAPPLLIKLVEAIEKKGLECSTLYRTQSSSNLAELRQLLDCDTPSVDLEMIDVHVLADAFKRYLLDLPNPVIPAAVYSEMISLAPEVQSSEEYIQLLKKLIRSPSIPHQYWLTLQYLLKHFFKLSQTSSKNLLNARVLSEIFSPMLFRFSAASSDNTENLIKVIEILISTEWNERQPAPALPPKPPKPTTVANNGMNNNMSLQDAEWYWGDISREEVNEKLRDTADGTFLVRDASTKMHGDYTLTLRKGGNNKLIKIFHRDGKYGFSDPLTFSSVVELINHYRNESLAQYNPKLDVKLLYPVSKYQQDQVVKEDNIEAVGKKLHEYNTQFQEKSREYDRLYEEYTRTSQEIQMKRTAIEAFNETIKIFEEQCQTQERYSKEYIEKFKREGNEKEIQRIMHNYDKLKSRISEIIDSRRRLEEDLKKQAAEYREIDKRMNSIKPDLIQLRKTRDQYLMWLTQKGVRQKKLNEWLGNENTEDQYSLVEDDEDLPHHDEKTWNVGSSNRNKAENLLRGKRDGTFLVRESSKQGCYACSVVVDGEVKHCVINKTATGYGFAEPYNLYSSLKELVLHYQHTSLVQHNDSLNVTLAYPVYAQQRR
Outline: as §1

[1] = target: recombinant PI3Kalpha (shortened form of the catalytic subunit) (Homo sapiens, UniProt P42336); assay: BIACORE PI3K binding assay (SPR); conditions: 25° C.
Sequence of recombinant PI3Kalpha (shortened form of the catalytic subunit) (P42336 151-1068 limits assumed): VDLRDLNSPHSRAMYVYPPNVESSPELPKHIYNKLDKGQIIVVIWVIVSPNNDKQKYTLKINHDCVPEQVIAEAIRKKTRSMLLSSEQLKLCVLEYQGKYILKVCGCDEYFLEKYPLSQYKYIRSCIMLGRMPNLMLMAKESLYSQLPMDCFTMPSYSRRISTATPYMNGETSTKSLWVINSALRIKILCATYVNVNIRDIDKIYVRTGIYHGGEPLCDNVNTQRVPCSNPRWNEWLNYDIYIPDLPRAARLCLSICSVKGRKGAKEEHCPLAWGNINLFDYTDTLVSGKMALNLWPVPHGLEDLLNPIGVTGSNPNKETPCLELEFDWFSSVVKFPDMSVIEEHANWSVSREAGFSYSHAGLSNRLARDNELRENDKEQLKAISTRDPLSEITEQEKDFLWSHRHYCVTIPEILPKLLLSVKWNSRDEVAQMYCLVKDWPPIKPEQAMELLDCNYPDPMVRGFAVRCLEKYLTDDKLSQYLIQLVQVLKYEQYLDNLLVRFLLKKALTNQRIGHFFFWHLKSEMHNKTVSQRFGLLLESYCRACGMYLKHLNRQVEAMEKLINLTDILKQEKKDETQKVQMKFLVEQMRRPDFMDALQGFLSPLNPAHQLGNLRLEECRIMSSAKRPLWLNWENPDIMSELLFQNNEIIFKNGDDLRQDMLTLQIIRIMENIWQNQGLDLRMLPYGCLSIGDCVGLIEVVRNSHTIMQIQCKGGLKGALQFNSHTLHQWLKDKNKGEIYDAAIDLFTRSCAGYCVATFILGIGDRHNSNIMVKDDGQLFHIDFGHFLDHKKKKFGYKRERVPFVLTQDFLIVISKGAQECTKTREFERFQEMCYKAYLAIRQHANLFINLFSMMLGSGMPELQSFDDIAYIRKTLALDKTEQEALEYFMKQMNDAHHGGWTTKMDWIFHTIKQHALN
Outline: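 Contact time was 180 s and dissociation 240 s, in HEPES pH 7.40 buffer with 2% DMSO. Solvent-corrected, double-referenced data were fitted to a 1:1 model with mass transport.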

[2] = system: PI3K-dependent phosphorylation of PKB at Serin 473 in PC3 cells; assay: Cellular PI3K assay (P-S473-PKB Luminex assay in PC3 cells); assay type: cell-based; conditions: Homo sapiens, PC-3, 0.5 h; PC3 cells, 30 min, serum-free, P-S473-PKB; read-out: IC50 (cell)
Outline: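 PC3 cells were exposed for 30 min under serum-free conditions to 7 concentrations of compound, then lysed. Lysates were captured overnight at 4°C on anti-total-PKB Luminex beads and detected with P-S473-PKB antibody plus PE-labelled secondary.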

DNA-PK protein complex = DNA-PK protein complex (Homo sapiens, UniProt P78527); assay: Biochemical DNA-PK assay (FlashPlate)
Outline: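 Streptavidin-coated FlashPlate radiometric kinase assay, stopped with 200 mM EDTA, then wells washed with 0.9% NaCl and bound radioactivity counted. Blank (non-specific reaction) defined with a proprietary kinase inhibitor at 10 μM.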

mTOR = target: T1, mTOR (Homo sapiens, UniProt P42345); assay: Biochemical mTOR assay (Millipore mTOR assay kit)
T1 construct: purchased Millipore 14-770
T1 sequence (P42345 1362-2549 limits assumed): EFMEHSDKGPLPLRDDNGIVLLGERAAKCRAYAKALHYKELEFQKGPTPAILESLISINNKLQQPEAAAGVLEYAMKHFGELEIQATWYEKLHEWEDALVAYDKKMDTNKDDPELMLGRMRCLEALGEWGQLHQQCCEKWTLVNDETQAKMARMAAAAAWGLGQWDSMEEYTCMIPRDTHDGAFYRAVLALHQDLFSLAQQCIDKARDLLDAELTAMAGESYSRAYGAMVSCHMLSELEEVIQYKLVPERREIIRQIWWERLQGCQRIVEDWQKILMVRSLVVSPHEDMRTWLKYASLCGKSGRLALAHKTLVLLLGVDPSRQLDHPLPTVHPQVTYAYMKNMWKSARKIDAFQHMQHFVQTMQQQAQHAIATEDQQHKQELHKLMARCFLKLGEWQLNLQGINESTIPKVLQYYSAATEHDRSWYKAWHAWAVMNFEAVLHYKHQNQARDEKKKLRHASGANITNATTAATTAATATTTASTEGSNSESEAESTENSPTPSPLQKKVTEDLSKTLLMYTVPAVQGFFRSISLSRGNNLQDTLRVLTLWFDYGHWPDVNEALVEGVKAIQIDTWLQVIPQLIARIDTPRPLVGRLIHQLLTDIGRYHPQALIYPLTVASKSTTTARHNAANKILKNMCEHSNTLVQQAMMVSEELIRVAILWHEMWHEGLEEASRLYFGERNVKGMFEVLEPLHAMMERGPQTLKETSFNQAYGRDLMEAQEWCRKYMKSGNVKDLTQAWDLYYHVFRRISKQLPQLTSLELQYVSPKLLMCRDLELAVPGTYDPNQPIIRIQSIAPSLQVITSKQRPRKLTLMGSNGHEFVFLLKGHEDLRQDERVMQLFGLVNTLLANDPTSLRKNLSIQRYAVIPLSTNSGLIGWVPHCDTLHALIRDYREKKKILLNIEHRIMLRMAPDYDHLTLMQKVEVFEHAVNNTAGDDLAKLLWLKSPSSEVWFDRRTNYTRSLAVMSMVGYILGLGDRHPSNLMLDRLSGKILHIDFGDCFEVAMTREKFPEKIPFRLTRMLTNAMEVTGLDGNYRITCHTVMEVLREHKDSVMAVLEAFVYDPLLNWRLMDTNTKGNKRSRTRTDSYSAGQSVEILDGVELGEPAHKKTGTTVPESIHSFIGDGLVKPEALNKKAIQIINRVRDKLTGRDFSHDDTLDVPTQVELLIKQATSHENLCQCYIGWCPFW
Protocol: The biochemical mTOR assay was carried out by the method described in the Millipore mTOR assay kit (catalogue number 14-770).

Sequence of PI3Kalpha (P42336 whole entry): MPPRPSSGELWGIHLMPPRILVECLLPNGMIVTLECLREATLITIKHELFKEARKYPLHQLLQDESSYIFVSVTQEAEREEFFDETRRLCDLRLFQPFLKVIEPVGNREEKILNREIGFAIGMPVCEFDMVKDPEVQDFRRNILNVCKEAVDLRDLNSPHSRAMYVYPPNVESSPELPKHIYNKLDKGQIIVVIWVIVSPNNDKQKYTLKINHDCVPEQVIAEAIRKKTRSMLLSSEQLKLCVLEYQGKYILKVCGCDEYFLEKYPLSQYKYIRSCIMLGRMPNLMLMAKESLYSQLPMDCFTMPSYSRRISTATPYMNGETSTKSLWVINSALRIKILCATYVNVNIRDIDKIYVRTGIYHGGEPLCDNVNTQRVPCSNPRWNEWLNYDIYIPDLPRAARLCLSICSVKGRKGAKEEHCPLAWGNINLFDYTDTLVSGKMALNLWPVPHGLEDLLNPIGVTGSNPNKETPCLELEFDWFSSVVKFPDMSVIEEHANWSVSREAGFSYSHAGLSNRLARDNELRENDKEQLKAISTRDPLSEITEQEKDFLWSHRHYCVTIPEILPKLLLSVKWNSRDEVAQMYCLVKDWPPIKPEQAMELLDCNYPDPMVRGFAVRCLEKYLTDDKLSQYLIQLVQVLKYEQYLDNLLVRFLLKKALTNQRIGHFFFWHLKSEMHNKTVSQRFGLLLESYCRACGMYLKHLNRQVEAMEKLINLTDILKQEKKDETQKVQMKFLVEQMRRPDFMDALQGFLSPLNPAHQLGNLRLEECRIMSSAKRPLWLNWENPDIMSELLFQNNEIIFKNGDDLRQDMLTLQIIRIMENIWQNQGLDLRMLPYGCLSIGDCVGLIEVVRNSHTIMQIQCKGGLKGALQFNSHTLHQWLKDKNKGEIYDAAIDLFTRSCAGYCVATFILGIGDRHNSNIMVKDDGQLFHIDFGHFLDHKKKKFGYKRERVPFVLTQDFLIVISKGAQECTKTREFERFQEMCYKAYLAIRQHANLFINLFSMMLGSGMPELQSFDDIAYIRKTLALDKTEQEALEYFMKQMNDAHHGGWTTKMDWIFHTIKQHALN
Sequence of PI3Kalpha (P27986 whole entry partner): as the sequence (P27986 whole entry partner) above

SMILES	IC50 (PI3Kalpha) [µM]	IC50 (PI3Kbeta) [µM]	Kd [1] [µM]	IC50 [2] [µM]	IC50 (DNA-PK protein complex) [µM]	IC50 (mTOR) [µM]	melting point [°C]
Cn1cc(-c2cc(-c3cnc4ccccc4c3)ccn2)n(-c2ccc(C(C)(C)C#N)cc2)c1=O [Example A1, 2-Methyl-2-{4-[3-methyl-2-oxo-5-(4-quinolin-3-ylpyridin-2-yl)-2,3-dihydroimidazol-1-yl]phenyl}propionitrile]	0.1 to 10	0.1 to 10	0.1 to 10	0.1 to 10	0.0001 to 0.1	0.0001 to 0.1	228
Cc1nc2cc(-c3ccnc(-c4cn(C)c(=O)n4-c4ccc(C(C)(C)C#N)cc4)c3)cnc2[nH]1 [Example A7, 2-Methyl-2-(4-{3-methyl-5-[4-(2-methyl-3H-imidazo[4,5-b]pyridin-6-yl)pyridin-2-yl]-2-oxo-2,3-dihydroimidazol-1-yl}phenyl)propionitrile]	0.0001 to 0.1	0.1 to 10	0.0001 to 0.1	0.1 to 10	0.1 to 10		288
COc1ccc(-c2ccnc(-c3cn(C)c(=O)n3-c3ccc(C(C)(C)C#N)cc3)c2)cn1 [Example A9, 2-{4-[5-(6-Methoxy-[3,4′]bipyridinyl-2′-yl)-3-methyl-2-oxo-2,3-dihydroimidazol-1-yl]phenyl}-2-methylpropionitrile]	0.1 to 10	0.1 to 10	0.1 to 10	0.1 to 10	0.0001 to 0.1	0.1 to 10	187
Cn1cc(-c2cc(-c3cccnc3)ccn2)n(-c2ccc(C(C)(C)C#N)cc2)c1=O [Example A10, 2-[4-(5-[3,4′]Bipyridinyl-2′-yl-3-methyl-2-oxo-2,3-dihydroimidazol-1-yl)phenyl]-2-methylpropionitrile]	0.1 to 10	0.1 to 10	0.1 to 10	> 10	0.0001 to 0.1		180
Cn1cc(-c2cc(-c3cnc4[nH]ccc4c3)ccn2)n(-c2ccc(C(C)(C)C#N)cc2)c1=O [Example A12, 2-Methyl-2-(4-{3-methyl-2-oxo-5-[4-(1H-pyrrolo[2,3-b]pyridin-5-yl)pyridin-2-yl]-2,3-dihydroimidazol-1-yl}phenyl)propionitrile]	0.0001 to 0.1	0.1 to 10	0.0001 to 0.1	0.0001 to 0.1	0.0001 to 0.1	0.1 to 10	248
CC(C)(CN)c1ccc(-n2c(-c3cc(-c4cnc5ccccc5c4)ccn3)c[nH]c2=O)cc1 [Example A16, 1-[4-(2-Amino-1,1-dimethylethyl)phenyl]-5-(4-quinolin-3-ylpyridin-2-yl)-1,3-dihydroimidazol-2-one]	0.1 to 10	0.1 to 10	0.1 to 10	> 10	0.1 to 10		244 to 247
CC(C)(C#N)c1ccc(-n2c(-c3cc(-c4cnc5ccccc5c4)ccn3)c[nH]c2=O)cc1 [Example A17, 2-Methyl-2-{4-[2-oxo-5-(4-quinolin-3-ylpyridin-2-yl)-2,3-dihydroimidazol-1-yl]-phenyl}propionitrile]	0.1 to 10	0.1 to 10	0.1 to 10	0.1 to 10	0.1 to 10		271
Cn1cc(-c2cc(-c3cnc4[nH]ccc4c3)ccn2)n(-c2ccc(C(C)(C)C(N)=O)cc2)c1=O [Example A34, 2-(4-{3-Methyl-2-oxo-5-[4-(1H-pyrrolo[2,3-b]pyridin-5-yl)pyridin-2-yl]-2,3-dihydroimidazol-1-yl}phenyl)isobutyramide]	0.0001 to 0.1	0.1 to 10		0.1 to 10	0.0001 to 0.1	0.1 to 10	299
Cn1cc(-c2cc(-c3cnc4[nH]ccc4c3)ccn2)n(-c2ccc(C(C)(C)CN)cc2)c1=O [Example A35, 3-[4-(2-Amino-1,1-dimethylethyl)phenyl]-1-methyl-4-[4-(1H-pyrrolo[2,3-b]-pyridin-5-yl)pyridin-2-yl]-1,3-dihydroimidazol-2-one]	0.1 to 10	0.1 to 10		0.1 to 10	0.0001 to 0.1	0.1 to 10	91
Cn1cc(-c2cc(-c3cnc4[nH]ccc4c3)ccn2)n(-c2ccccc2)c1=O [Example A47, 1-Methyl-3-phenyl-4-[4-(1H-pyrrolo[2,3-b]pyridin-5-yl)pyridin-2-yl]-1,3-dihydroimidazol-2-one]	0.1 to 10	0.1 to 10		0.1 to 10	0.0001 to 0.1	0.1 to 10	264
COc1cc(-n2c(-c3cc(-c4cnc5[nH]ccc5c4)ccn3)cn(C)c2=O)ccc1Cl [Example A58, 3-(4-Chloro-3-methoxyphenyl)-1-methyl-4-[4-(1H-pyrrolo[2,3-b]pyridin-5-yl)-pyridin-2-yl]-1,3-dihydroimidazol-2-one]	0.1 to 10	0.1 to 10	0.1 to 10	0.1 to 10	0.1 to 10		223

The next lines start with the values.

IC50 (PI3Kalpha) [µM]	IC50 (PI3Kbeta) [µM]	Kd [1] [µM]	IC50 [2] [µM]	IC50 (DNA-PK protein complex) [µM]	IC50 (mTOR) [µM]	melting point [°C]	SMILES
0.1 to 10	0.1 to 10	0.1 to 10	> 10	0.1 to 10		138	COc1cc(-c2ccnc(-c3cn(C)c(=O)n3-c3ccc(C(C)(C)C#N)cc3)c2)ccn1 [Example A6, 2-{4-[5-(2′-Methoxy-[4,4′]bipyridinyl-2-yl)-3-methyl-2-oxo-2,3-dihydroimidazol-1-yl]phenyl}-2-methylpropionitrile]
0.0001 to 0.1	0.1 to 10	0.0001 to 0.1	0.1 to 10	0.1 to 10		252	Cn1cc(-c2cc(-c3ccc(N)nc3)ccn2)n(-c2ccc(C(C)(C)C#N)cc2)c1=O [Example A8, 2-{4-[5-(6-Amino-[3,4′]bipyridinyl-2′-yl)-3-methyl-2-oxo-2,3-dihydroimidazol-1-yl]phenyl}-2-methylpropionitrile]
0.1 to 10	0.1 to 10	0.1 to 10	0.1 to 10	0.1 to 10		277	COc1ccc(-c2ccnc(-c3c[nH]c(=O)n3-c3ccc(C(C)(C)C#N)cc3)c2)cn1 [Example A15, 2-{4-[5-(6-Methoxy-[3,4′]bipyridinyl-2′-yl)-2-oxo-2,3-dihydroimidazol-1-yl]-10 phenyl}-2-methylpropionitrile]
0.1 to 10	0.1 to 10	0.0001 to 0.1	0.0001 to 0.1	0.1 to 10		159	Cn1cc(-c2cc(-c3cnc4[nH]cc(C(F)(F)F)c4c3)ccn2)n(-c2ccc(C(C)(C)C#N)cc2)c1=O [Example A18, 2-Methyl-2-(4-{3-methyl-2-oxo-5-[4-(3-trifluoromethyl-1H-pyrrolo[2,3-b]pyridin-5-yl)pyridin-2-yl]-2,3-dihydroimidazol-1-yl}phenyl)propionitrile]
0.1 to 10	0.0001 to 0.1	0.0001 to 0.1	0.1 to 10	0.1 to 10		163	Cn1cc(-c2cc(-c3cnc4[nH]ccc4c3)ccn2)n(-c2ccc(N3CCNCC3)c(C(F)(F)F)c2)c1=O [Example A25, 1-Methyl-3-(4-piperazin-1-yl-3-trifluoromethylphenyl)-4-[4-(1H-pyrrolo[2,3-b]-pyridin-5-yl)pyridin-2-yl]-1,3-dihydroimidazol-2-one]
0.0001 to 0.1	0.0001 to 0.1	0.0001 to 0.1	0.0001 to 0.1	0.0001 to 0.1		195	Cn1cc(-c2cc(-c3cnc(N)c(C(F)(F)F)c3)ccn2)n(-c2ccc(C(C)(C)C#N)cc2)c1=O [Example A40, 2-{4-[5-(6-Amino-5-trifluoromethyl-[3,4′]bipyridinyl-2′-yl)-3-methyl-2-oxo-2,3-dihydroimidazol-1-yl]phenyl}-2-methylpropionitrile]
0.1 to 10	0.1 to 10	0.0001 to 0.1	0.1 to 10	0.0001 to 0.1		191	CNc1ccc(-c2ccnc(-c3cn(C)c(=O)n3-c3ccc(C(C)(C)C#N)cc3)c2)cn1 [Example A42, 2-Methyl-2-{4-[3-methyl-5-(6-methylamino-[3,4′]bipyridinyl-2′-yl)-2-oxo-2,3-dihydroimidazol-1-yl]phenyl}propionitrile]
0.1 to 10	> 10	0.1 to 10	0.1 to 10	0.0001 to 0.1		238	Cn1cc(-c2cc(-c3ccc4[nH]ccc4c3)ccn2)n(-c2ccc(C(C)(C)C#N)cc2)c1=O [Example A53, 2-(4-{5-[4-(1H-Indol-5-yl)pyridin-2-yl]-3-methyl-2-oxo-2,3-dihydroimidazol-1-yl}-phenyl)-2-methylpropionitrile]
